Test results as given in ChEMBL document CHEMBL1154105, “Optimization of peptide-based inhibitors of prostate-specific antigen (PSA) as targeted imaging agents for prostate cancer” (Bioorg Med Chem, 2009).
Starred links: 1 amine or outer side, 2 acyl side, 3 side chain; linkers in the order of their positions; H or OH if unused. Non-standard residues stand in square brackets, D forms with d. Residues, ends and D or L forms follow the SMILES beside them. *: point of attachment. Ala(imidazol-2-yl) = N[C@@H](Cc1ncc[nH]1)C(=O)O; X2 = C[C@@H](C(=O)[*:2])N(c1ccc2ccccc2c1)[*:1]; Phe(4-Br) = N[C@@H](Cc1ccc(Br)cc1)C(=O)O; N(cHex)Ala = C[C@H](NC1CCCCC1)C(=O)O; Pro(3R-OH) = O=C(O)[C@H]1NCC[C@H]1O; hIle = CC[C@H](C)C[C@H](N)C(=O)O; Met(O) = CS(=O)CC[C@H](N)C(=O)O; boroLeu = CC(C)C[C@H](N*)B(O)O; NPhGly = O=C(O)CNc1ccccc1; Cbz = O=C(OCc1ccccc1)*; tBu = CC(C)(C)*

Molecular target: T1, Prostate-specific antigen (Homo sapiens, UniProt P07288);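 also: Fluorescence-based readout of substrate cleavage by prostate-specific antigen, used to gauge enzyme inhibition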
T1 sequence (P07288 whole entry): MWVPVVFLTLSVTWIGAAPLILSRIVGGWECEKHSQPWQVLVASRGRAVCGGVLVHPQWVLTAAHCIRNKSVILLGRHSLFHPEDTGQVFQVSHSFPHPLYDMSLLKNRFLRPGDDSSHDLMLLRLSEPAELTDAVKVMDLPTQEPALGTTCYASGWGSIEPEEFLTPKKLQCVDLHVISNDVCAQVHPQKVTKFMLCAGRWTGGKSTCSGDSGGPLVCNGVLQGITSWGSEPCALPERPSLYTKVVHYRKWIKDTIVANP
Assay: biochemical
Type: tissue-based, Prostate gland
Details: not given

SMILES	Ki [µM]
CC(C)C[C@@H](C=O)NC(=O)[C@H](CC(C)C)NC(=O)[C@H](CCC(=O)O)NC(=O)[C@H](CO)NC(=O)[C@H](CO)NC(=O)OCc1ccccc1 (Cbz-SSELL-aldehyde)	> 1000
CC(C)C[C@@H](C=O)NC(=O)[C@H](CC(C)C)NC(=O)CNC(=O)[C@H](CO)NC(=O)[C@H](CO)NC(=O)OCc1ccccc1 (Cbz-SSGLL-aldehyde)	> 1000
CC(C)C[C@@H](C=O)NC(=O)[C@H](C)NC(=O)[C@H](CCCCN)NC(=O)[C@H](CO)NC(=O)[C@H](CO)NC(=O)OCc1ccccc1 (Cbz-SSKAL-aldehyde)	> 100
CC(C)C[C@@H](C=O)NC(=O)[C@H](CSC(C)(C)C)NC(=O)[C@H](CCCCN)NC(=O)[C@H](CO)NC(=O)[C@H](CO)NC(=O)OCc1ccccc1 (Cbz-SSKC(tBu)L-aldehyde)	> 50
CC(C)C[C@@H](C=O)NC(=O)[C@H](CC(=O)O)NC(=O)[C@H](CCCCN)NC(=O)[C@H](CO)NC(=O)[C@H](CO)NC(=O)OCc1ccccc1 (Cbz-SSKDL-aldehyde)	> 1000
CC(C)C[C@@H](C=O)NC(=O)CNC(=O)[C@H](CCCCN)NC(=O)[C@H](CO)NC(=O)[C@H](CO)NC(=O)OCc1ccccc1 (Cbz-SSKGL-aldehyde)	> 1000
CC(C)C[C@@H](C=O)NC(=O)[C@H](CCCCN)NC(=O)[C@H](CCCCN)NC(=O)[C@H](CO)NC(=O)[C@H](CO)NC(=O)OCc1ccccc1 (Cbz-SSKKL-aldehyde)	> 50
CC(C)C[C@@H](C=O)NC(=O)[C@@H]1CCCN1C(=O)[C@H](CCCCN)NC(=O)[C@H](CO)NC(=O)[C@H](CO)NC(=O)OCc1ccccc1 (Cbz-SSKPL-aldehyde)	> 500
CC(C)C[C@@H](C=O)NC(=O)[C@H](CCC(N)=O)NC(=O)[C@H](CCCCN)NC(=O)[C@H](CO)NC(=O)[C@H](CO)NC(=O)OCc1ccccc1 (Cbz-SSKQL-aldehyde)	21.8
CC(C)C[C@@H](C=O)NC(=O)[C@H](CO)NC(=O)[C@H](CCCCN)NC(=O)[C@H](CO)NC(=O)[C@H](CO)NC(=O)OCc1ccccc1 (Cbz-SSKSL-aldehyde)	> 50
CC(C)C[C@@H](C=O)NC(=O)[C@@H](NC(=O)[C@H](CCCCN)NC(=O)[C@H](CO)NC(=O)[C@H](CO)NC(=O)OCc1ccccc1)C(C)C (Cbz-SSKVL-aldehyde)	> 50
CC(C)C[C@@H](C=O)NC(=O)[C@H](Cc1ncc[nH]1)NC(=O)[C@H](CCCCN)NC(=O)[C@H](CO)NC(=O)[C@H](CO)NC(=O)OCc1ccccc1 (Cbz-SSK[Ala(imidazol-2-yl)]L-aldehyde)	18.6
CC(C)C[C@@H](C=O)NC(=O)[C@H](C)N(C(=O)[C@H](CCCCN)NC(=O)[C@H](CO)NC(=O)[C@H](CO)NC(=O)OCc1ccccc1)C1CCCCC1 (Cbz-SSK[N(cHex)Ala]L-aldehyde)	> 50
CC(C)C[C@@H](C=O)NC(=O)CN(C(=O)[C@H](CCCCN)NC(=O)[C@H](CO)NC(=O)[C@H](CO)NC(=O)OCc1ccccc1)c1ccccc1 (Cbz-SSK[NPhGly]L-aldehyde)	> 50
CC(C)C[C@@H](C=O)NC(=O)[C@H](Cc1ccc(Br)cc1)NC(=O)[C@H](CCCCN)NC(=O)[C@H](CO)NC(=O)[C@H](CO)NC(=O)OCc1ccccc1 (Cbz-SSK[Phe(4-Br)]L-aldehyde)	> 500
CC(C)C[C@@H](C=O)NC(=O)[C@@H]1[C@H](O)CCN1C(=O)[C@H](CCCCN)NC(=O)[C@H](CO)NC(=O)[C@H](CO)NC(=O)OCc1ccccc1 (Cbz-SSK[Pro(3R-OH)]L-aldehyde)	> 500
CC(C)C[C@@H](C=O)NC(=O)[C@H](C)N(C(=O)[C@H](CCCCN)NC(=O)[C@H](CO)NC(=O)[C@H](CO)NC(=O)OCc1ccccc1)c1ccc2ccccc2c1 (Cbz-SSK[X2]L-aldehyde)	> 100
CC[C@H](C)C[C@H](NC(=O)[C@H](CCCCN)NC(=O)[C@H](CO)NC(=O)[C@H](CO)NC(=O)OCc1ccccc1)C(=O)N[C@H](C=O)CC(C)C (Cbz-SSK[hIle]L-aldehyde)	37.4
CSCC[C@H](NC(=O)[C@H](CO)NC(=O)[C@H](CO)NC(=O)OCc1ccccc1)C(=O)N[C@@H](CC(C)C)C(=O)N[C@H](C=O)CC(C)C (Cbz-SSMLL-aldehyde)	7.5
CC(C)C[C@@H](C=O)NC(=O)[C@H](CC(C)C)NC(=O)[C@H](CC(N)=O)NC(=O)[C@H](CO)NC(=O)[C@H](CO)NC(=O)OCc1ccccc1 (Cbz-SSNLL-aldehyde)	18.2
CC(C)C[C@@H](C=O)NC(=O)[C@H](CC(C)C)NC(=O)[C@@H]1CCCN1C(=O)[C@H](CO)NC(=O)[C@H](CO)NC(=O)OCc1ccccc1 (Cbz-SSPLL-aldehyde)	> 1000
CC(C)C[C@@H](C=O)NC(=O)[C@H](CC(C)C)NC(=O)[C@H](CCC(N)=O)NC(=O)[C@H](CO)NC(=O)[C@H](CO)NC(=O)OCc1ccccc1 (Cbz-SSQLL-aldehyde)	3.9
CC(C)C[C@@H](C=O)NC(=O)[C@H](CC(C)C)NC(=O)[C@@H](NC(=O)[C@H](CO)NC(=O)[C@H](CO)NC(=O)OCc1ccccc1)[C@@H](C)O (Cbz-SSTLL-aldehyde)	43.8
CC(C)C[C@@H](C=O)NC(=O)[C@H](CC(C)C)NC(=O)[C@H](CC[S+](C)[O-])NC(=O)[C@H](CO)NC(=O)[C@H](CO)NC(=O)OCc1ccccc1 (stereo partly specified) (Cbz-SS[Met(O)]LL-aldehyde)	25.9
CC(C)C[C@@H](C=O)NC(=O)[C@H](CC(C)C)NC(=O)[C@H](C)N(C(=O)[C@H](CO)NC(=O)[C@H](CO)NC(=O)OCc1ccccc1)C1CCCCC1 (Cbz-SS[N(cHex)Ala]LL-aldehyde)	13.1

Test system: not listed separately
Assay: Selectivity ratio of Ki for chymotrypsin to Ki for prostate-specific antigen
Details: Prostate gland

SMILES	Ratio Ki
CC(C)C[C@H](NC(=O)[C@H](CC(C)C)NC(=O)[C@H](CCCCN)NC(=O)[C@H](CO)NC(=O)[C@H](CO)NC(=O)OCc1ccccc1)B(O)O (Cbz-SSKL-boroLeu)	60
